Laboratory results published in US20110117554A1, “Formamide-containing mixtures for detecting nucleic acids” (priority 2009, published 2011).

Experiment: Melting temperatures of 20mer nucleic acid duplexes in formamide-water mixtures
Format: physicochemical
Details: for Melting Temperatures in Formamide: 1.5 μM single strand, 100 mM NaCl, 10 mM K-phosphate pH 7, 0.1 mM EDTA
Method: A mismatch in 50% formamide in the DNA strand lowers the melting temperature of the duplex containing LNA-8 from 72 to 66 to 62° C.
As the results in the Tables show, useful melting temperatures are obtained when the oligonucleotides bound in duplex contain at least 15 nucleotide units that have 2′-OMe ribonucleotides as their building blocks. Comparably useful melting temperatures are obtained when the oligonucleotides contain locked nucleic acid (LNA) carbohydrate analogs, as described in [Koshkin et al., 1998]. The data in the Tables also makes clear that the binding between two complementary DNA strands of this length is not useful in 50% formamide, as it is below 30° C. at 50% formamide.

## DNA:DNA: 20mer DNA duplex of strand-1 5′-CTTCAGGTACTGAGTCAAGC-3′ (SEQ ID NO 3) and strand-2 (SEQ ID NO 4) (chain 1 CTTCAGGTACTGAGTCAAGC; chain 2 GCTTGACTCAGTACCTGAAG; DNA, backbone and methylation of C not given here)
0 % formamide (Table 3)
  Tm (Stability of Duplexes in Formamide and Water): 61 °C
0 percent formamide
  Melting Temperatures in Formamide: 62 °C
25 % formamide (Table 3)
  Tm (Stability of Duplexes in Formamide and Water): 44 °C
25 percent formamide
  Melting Temperatures in Formamide: 46 °C
50 % formamide (Table 3)
  Tm (Stability of Duplexes in Formamide and Water): 28 °C
50 percent formamide
  Melting Temperatures in Formamide: 29 °C
70 % formamide (Table 3)
  Tm (Stability of Duplexes in Formamide and Water): <20 °C
70 % formamide (Table 3), listed as model 20 mer
  Tm (Stability of Duplexes in Formamide and Water): ≤ 20 °C

## RNA:RNA: 20mer RNA duplex 5′-CUUCAGGUACUGAGUCAAGC-3′ (SEQ ID NO 1) with 3′-GAAGUCCAUGACUCAGUUCG-5′ (SEQ ID NO 2) (chain 2 GCUUGACUCAGUACCUGAAG; RNA, backbone not given here)
0 % formamide (Table 3)
  Tm (Stability of Duplexes in Formamide and Water): 73 °C
0 percent formamide
  Melting Temperatures in Formamide: 73 °C
25 % formamide (Table 3)
  Tm (Stability of Duplexes in Formamide and Water): 60 °C
25 percent formamide
  Melting Temperatures in Formamide: 61 °C
50 % formamide (Table 3)
  Tm (Stability of Duplexes in Formamide and Water): 48 °C
50 percent formamide
  Melting Temperatures in Formamide: 49 °C
70 % formamide (Table 3)
  Tm (Stability of Duplexes in Formamide and Water): 40 °C
90 % formamide (Table 3)
  Tm (Stability of Duplexes in Formamide and Water): <25 °C
